The results in this text go back to patent EP4752139A1, “BRANCHED MULTI-HYDROXYL-PROTECTING OLIGOMER, LINKED BODY BONDED THEREWITH, AND BRANCHED MULTI-HYDROXYL OLIGOMER OBTAINED BY DEPROTECTING SAID LINKED BODY” (Tomoike Bio Ltd., priority 2023, dated 2025).

The series can be described thus: Evaluation of water solubility of deprotected pterostilbene linked bodies. Particulars: for water solubility compared to the hardly water-soluble F1: ion-exchanged water, solubility threshold could not be measured because the compound was extremely water-soluble. It counts as physicochemical. Here is the method: The deprotected pterostilbene linked body obtained in Examples were evaluated for water solubility using the following method. In FIGs 1 and 2, the numbers in the ellipses for each compound represent a level of water solubility as a molar ratio, with the water solubility of F1 (pterostilbene) (21 mg (0.0819 mmol) dissolved in 1 liter) being set at 1.0. The water solubility of F1 (pterostilbene) was determined using the value described in Sarah J. Bethune et al., Cryst. Growth Des. 2011, 11, 2817-2823. The water solubility of F1 glycoside (pterostilbene monoglycoside) was determined using the value described in Jose L. Gonzalez-Alfonso et al., Molecules 2018, 23, 1271.
Into a round-bottom flask was weighed 1.0 g of the compound and 100 mL of ion-exchanged water in sequence and the mixture was heated with a heat gun for about 1 minute, taking care not to boil the mixture, and then cooled to room temperature and allowed to stand. After 24 hours, the residue was removed by filtration, and the filtrate was concentrated under reduced pressure. A water solubility of each compound was calculated from the weight of the compound recovered from the filtrate.
In a round-bottom flask, a solution was prepared the amounts of the compound and ion-exchanged water shown in Figure 1, and a water solubility of the compound was calculated. Because the compound was extremely water-soluble, a water solubility threshold could not be measured. However, compared to the hardly water-soluble F1, its water solubility was 2×10^4 times or more, that is, extremely higher.

Molecules are shown by their SMILES.

As for `COc1cc(/C=C/c2ccc(OCC(CO)(CO)COCC(COCC(CO)(CO)CO)(COCC(CO)(CO)CO)COCC(CO)(CO)CO)cc2)cc(OC)c1` [J119, (E)-2,2'-(((2-((3-(4-(3,5-dimethoxystyryl)phenoxy)-2,2-bis(hydroxymethyl)propoxy)methyl)-2-((3-hydroxy-2,2-bis(hydroxymethyl)propoxy)methyl)propane-1,3-diyl)bis(oxy))bis(methylene))bis(2-(hydroxymethyl)propane-1,3-diol)], the “water solubility compared to the hardly water-soluble F1” value is listed as ≥ 2×10^4 times. Take `COc1cc(/C=C/c2ccc(O)cc2)cc(OC)c1` [F1, (E)-4-(3,5-dimethoxystyryl)phenol, reference compound]: the “level of water solubility as a molar ratio” value (water solubility of F1 (pterostilbene) set at 1.0 (reference)) is recorded as 1.0. `COc1cc(/C=C/c2ccc(OCC(CO)(CO)COC(COC(CO)CO)COC(CO)CO)cc2)cc(OC)c1` [J229, (E)-2,2'-((2-(3-(4-(3,5-dimethoxystyryl)phenoxy)-2,2-bis(hydroxymethyl)propoxy)propane-1,3-diyl)bis(oxy))bis(propane-1,3-diol)]: the “water solubility compared to the hardly water-soluble F1” value is given as ≥ 2×10^4 times.

For `COc1cc(/C=C/c2ccc(OCC(COCC(O)CO)(COCC(O)CO)COCC(O)CO)cc2)cc(OC)c1` (stereo not drawn) [H139, (E)-3,3'-((2-((2,3-dihydroxypropoxy)methyl)-2-((4-(3,5-dimethoxystyryl)phenoxy)methyl)propane-1,3-diyl)bis(oxy))bis(propane-1,2-diol)], the “water solubility compared to the hardly water-soluble F1” value is given as ≥ 2×10^4 times. The same measure, in the same setting: next, `COc1cc(/C=C/c2ccc(OCC(CO)(CO)COC(COCC(O)CO)COCC(O)CO)cc2)cc(OC)c1` (stereo not drawn) [J239, (E)-3,3'-((2-(3-(4-(3,5-dimethoxystyryl)phenoxy)-2,2-bis(hydroxymethyl)propoxy)propane-1,3-diyl)bis(oxy))bis(propane-1,2-diol)]: ≥ 2×10^4 times; `COc1cc(/C=C/c2ccc(OCC(CO)(CO)COCC(COC(CO)CO)(COC(CO)CO)COC(CO)CO)cc2)cc(OC)c1` [J129, (E)-2,2'-((2-(((1,3-dihydroxypropan-2-yl)oxy)methyl)-2-((3-(4-(3,5-dimethoxystyryl)phenoxy)-2,2-bis(hydroxymethyl)propoxy)methyl)propane-1,3-diyl)bis(oxy))bis(propane-1,3-diol)]: ≥ 2×10^4 times; `COc1cc(/C=C/c2ccc(OCC(CO)(CO)COCC(COCC(O)CO)(COCC(O)CO)COCC(O)CO)cc2)cc(OC)c1` (stereo not drawn) [J139, (E)-3,3'-((2-((2,3-dihydroxypropoxy)methyl)-2-((3-(4-(3,5-dimethoxystyryl)phenoxy)-2,2-bis(hydroxymethyl)propoxy)methyl)propane-1,3-diyl)bis(oxy))bis(propane-1,2-diol)]: ≥ 2×10^4 times.

As to `COc1cc(/C=C/c2ccc(OCC(CO)(CO)COC(COCC(CO)(CO)CO)COCC(CO)(CO)CO)cc2)cc(OC)c1` [J219, (E)-2,2'-(((2-(3-(4-(3,5-dimethoxystyryl)phenoxy)-2,2-bis(hydroxymethyl)propoxy)propane-1,3-diyl)bis(oxy))bis(methylene))bis(2-(hydroxymethyl)propane-1,3-diol)], the “water solubility compared to the hardly water-soluble F1” value was ≥ 2×10^4 times.

Turning to `COc1cc(/C=C/c2ccc(OCC(COC(CO)CO)(COC(CO)CO)COC(CO)CO)cc2)cc(OC)c1` [H129, (E)-2,2'-((2-(((1,3-dihydroxypropan-2-yl)oxy)methyl)-2-((4-(3,5-dimethoxystyryl)phenoxy)methyl)propane-1,3-diyl)bis(oxy))bis(propane-1,3-diol)], the “water solubility compared to the hardly water-soluble F1” value was ≥ 2×10^4 times.
